Like-named read-outs stand apart in the source and are kept apart here.

Test [1] relates to IL-6 production in rat macrophages. The test is described as follows: LPS-induced IL-6 production (ELISA) in rat macrophages. It is filed as cell-based. A general note: An ELISA detects its analyte on a solid surface through an enzyme-linked reagent.
For the next test, the system named is EAE in female Lewis rats. The test is described as follows: Experimental allergic encephalomyelitis (EAE), clinical score. It is filed as in vivo. The protocol:
Rats were induced with EAE by injecting intradermally 50 μg of myelin basic protein (MBP) per animal emulsified in complete Freund's adjuvant (CFA) into the medial footpad of each hind leg on day 1 followed by a booster injection on the 7th day under ether anesthesia. Clinical symptoms in these rats manifest as an ascending paralysis resulting in death in most animals. The signs of EAE were scored as: (0) normal; (1) piloerection; […] (4) paraplegia; and (5) moribund. […] One group of animals induced for EAE was left untreated while another group of animals was not induced for EAE and used as the control group.

The test system of test [2] is NO production in rat resident macrophages. The test is described as follows: LPS-/cytokine-induced NO production (nitrite) in rat resident peritoneal macrophages. It is filed as cell-based. To be noted: for inhibition at 20000 µM: Rattus norvegicus, Macrophage. The protocol:
Isolation of Rat Macrophages and Induction of NO Production Resident macrophages were obtained from rats by peritoneal lavage with sterile RPMI 1640 medium containing 1% fetal bovine serum and 100 μg/ml gentamicin (Wang et al., 1995). Cells were washed three times with RPMI 1640 at 4° C. All cell cultures were maintained at 37° C. in a humidified incubator containing 5% CO2 in air. Macrophages, at a concentration of 2×10^6/ml in RPMI 1640 medium containing L-glutamine and gentamicin, were added in volumes of 800 μl to a 35 mm plate. After 1 h, nonadherent cells were removed by washing and 800 μl of serum-free RPMI 1640 medium with various stimuli were added to the adherent cells. After 24 h incubation in 5% CO2 in air at 37° C., the culture supernatants were transferred to measure NO production (Geng et al., 1995; Wang et al., 1995).
Isolation of rat macrophages and induction of NO production Resident macrophages were obtained from rat by peritoneal lavage with sterile RPMI 1640 medium containing 1% fetal bovine serum and 100 μg/ml gentamicin as described herein. Cells were washed three times with RPMI 1640 at 4° C. All cell cultures were maintained at 37° C. in a humidified incubator containing 5% CO2 in air. Macrophages at a concentration of 2×10^6/ml in RPMI 1640 medium containing L-glutamine and gentamicin were added in volumes of 800 μl to a 35 mm plate. After 1 h, nonadherent cells were removed by washing and 800 μl of serum-free RPMI 1640 medium with various stimuli were added to the adherent cells. After incubation in 5% CO2 in air at 37° C., culture supernatants were transferred to measure NO production.
Isolation of rat macrophages and induction of NO production Resident macrophages were obtained from rat by peritoneal lavage with sterile RPMI 1640 medium containing 1% FBS and 100 μg/ml gentamicin. Cells were washed three times with RPMI 1640 at 4° C., and were maintained at 37° C. in a humidified incubator containing 5% CO2 in air. Macrophages at a concentration of […] in RPMI 1640 medium containing L-glutamine and gentamicin were added in volumes of 800 μl to a 35-mm plate. After 1 h, nonadherent cells were removed by washing, and 800 μl of serum-free RPMI 1640 medium with various stimuli was added to the adherent cells. After 24 h the culture supernatants were transferred to measure NO production.
Protein was measured (Bradford, 1976).

The test system of test [3] is TNF-α production in rat primary astrocytes. The test is described as follows: LPS-induced TNF-α production (ELISA) in rat primary astrocytes. It is filed as cell-based. The protocol:
(§1) Determination of TNF-α and IL-1β in culture supernatants Cells were stimulated with LPS in serum-free media for 24 h in the presence or absence of forskolin or rolipram, and concentrations of TNF-α and IL-1β were measured in culture supernatants by using high-sensitivity enzyme-linked immunosorbent assay (R&D Systems, USA) according to the manufacturer's instructions.

For test [4], the system named is IL-1β production in rat primary astrocytes. The test is described as follows: LPS-induced IL-1β production (ELISA) in rat primary astrocytes. It is filed as cell-based. The protocol:
as §1

A further test has as its system TNF-α. It is filed as in vivo, Lewis rats. The protocol:
One group of animals induced for EAE was left untreated while another group of animals was not induced for EAE and used as the control group.
Immunohistochemistry Brains were fixed in 10% buffered formalin (Stephens Scientific, Riverdale, N.J.). The tissues were embedded in paraffin and sectioned at 4 μm. Sections were then stained for various cytokines and cell markers as described below. For single-label immunohistochemistry, sections were incubated with either anti-iNOS antibody (1:100, rabbit polyclonal, Calbiochem, LaJolla, Calif.) or anti-TNF-α antibody (1:100, rabbit polyclonal, Genzyme, Cambridge, Mass.) or anti-IFN-γ antibody (1:200, rabbit polyclonal, Biosource International, Camarillo, Calif.) essentially as described for other antibodies (Hooper et al., 1997). The tissue sections were further incubated with FITC conjugated anti-rabbit IgG (1:100, Sigma, St. Louis, Mo.), mounted with mounting media (EMS) and analyzed by immunofluorescence microscopy (Olympus) using Adobe photoshop software. For immunofluorescent double-labeling, sections were incubated first with anti-iNOS (1:100) followed by macrophage marker ED1 (1:100, mouse monoclonal, Biosource International, Camarillo, Calif.). Anti-iNOS was visualized using TRITC conjugated anti-rabbit IgG—(1:100, Sigma, St. Louis, Mo.) and ED1 using FITC conjugated anti-mouse IgG (1:100, Sigma, St. Louis, Mo.). […]

Another test concerns iNOS gene. The test is described as follows: iNOS gene transcription (nuclear run-on assay) in rat primary astrocytes. It is filed as cell-based. The protocol: […]. In brief, the filters were prehybridized in 1 ml of hybridization buffer (50% formamide, 5×SSC, 1% SDS, 15% dextran sulfate, 1×Denhardt's solution, and 50 μg/ml heparin). After 24 h of prehybridization in the above buffer, hybridization was carried out with the labeled RNAs (1.3×10^5 cpm) at 42° C. for 60 h to 3 μg of the immobilized plasmid pGEM-T as a control, or to plasmids containing inserts of rat glyceraldehyde-3-phosphate dehydrogenase, rat actin, and human iNOS cDNAs. The filters were washed twice in 2×SSC, 0.1% SDS for 15 min at […], and twice in 0.5×SSC, 0.1% SDS for 15 min. Then the filters were treated with RNase buffer (300 mM NaCl, 10 mM TrisHCI, pH 7.4, 40 mM EDTA, 10 μg/ml RNase A, and 350 U/ml RNase T1) at 37° C. for 30 min, in the same buffer without RNases for another 30 min, and were then autoradiographed.

The mark [5] stands for this setting: Macrophages, 10 μM lovastatin or 5 mM NaPA 8 h, then LPS 1.0 μg/ml, 24 h.
Setting [6] is: treatment from first day of immunization.
Where [7] appears, read: Astrocytes, 10 μM lovastatin or 5 mM NaPA 8 h, then LPS 1.0 μg/ml, 24 h.

Turning to `O=C([O-])Cc1ccccc1.[Na+]` [NaPA, sodium salt of phenylacetic acid], the “Production of IL-6” value in test [1] worked out at 10.2 ± 1.4 ng/24 h/mg protein. For the same compound, the “protection against EAE disease” value with EAE in female Lewis rats (rat, in vivo) was “protected the rats from the severity of the disease”. Also, the “Production of NO” value in test [2] is 9.5 ± 0.7 nmol/24 h/mg protein. In addition, the “Production of TNF-α” value in test [3] turned out to be 0.4 ± 0.06 ng/24 h/mg protein. Moreover, in test [4], the “Production of IL-1β” value came out at 1.1 ± 0.2 ng/24 h/mg protein. Further, the “expression of TNF-α in EAE brain” value with TNF-α (rat, in vivo, ip) is reported as “blocked the induction of TNF-α”. Besides, in the test on iNOS gene, the “LPS-induced nuclear transcription of the iNOS gene” value is recorded as “inhibited the relative rate of LPS-induced nuclear transcription of the iNOS gene”.

As to `CC[C@H](C)C(=O)O[C@H]1C[C@@H](C)C=C2C=C[C@H](C)[C@H](CC[C@@H]3C[C@@H](O)CC(=O)O3)[C@H]21` [Lovastatin], the “Production of IL-6” value in test [1] (setting [5]) is listed as 8.3 ± 0.6 ng/24 h/mg protein. In addition, the “protection against EAE disease” value in the test with EAE in female Lewis rats (setting [6]) was “significantly delayed the onset of first of clinical symptom”. Further, in test [2] (setting [5]), the “Production of NO” value is reported as 7.2 ± 0.9 nmol/24 h/mg protein. Moreover, the “Production of TNF-α” value in test [3] (setting [7]) was found to be 0.3 ± 0.05 ng/24 h/mg protein. For the same compound, in test [4] (setting [7]), the “Production of IL-1β” value is 0.8 ± 0.1 ng/24 h/mg protein. For the same compound, the “LPS-induced nuclear transcription of the iNOS gene” value with iNOS gene (10 μM lovastatin, 5 mM NaPA or 2 μM lovastatin and 2 mM NaPA 8 h, LPS 1.0 μg/ml 4 h) is “inhibited the relative rate of LPS-induced nuclear transcription of the iNOS gene”.

The term inhibition denotes the change of the read-out against control, counted positive when it falls. Take `CC(=O)N[C@@H](CS)C(=O)O` [NAC, N-acetyl cysteine]: in the test with EAE in female Lewis rats (setting [6]), the “protection against EAE disease” value is reported as “protected the rats from the severity of the disease”. Besides, the Nitrite is reported as 9.9 ± 1.8 nmol/mg/24 h in test [2] (IFN-γ 200 U/ml, NAC 20 mM 2 h before); 9.2 ± 0.7 nmol/mg/24 h in test [2] (IL-1β 200 ng/ml, NAC 20 mM 2 h before); 25.2 ± 3.9 nmol/mg/24 h in test [2] (LPS 0.2 μg/ml + IFN-γ 50 U/ml, NAC 20 mM 2 h before); 28.4 ± 3.7 nmol/mg/24 h in test [2] (LPS 0.2 μg/ml + IL-1β 25 ng/ml, NAC 20 mM 2 h before); 13.6 ± 2.6 nmol/mg/24 h in test [2] (LPS 0.2 μg/ml + TNF-α 20 ng/ml, NAC 20 mM 2 h before); 11.6 ± 1.5 nmol/mg Protein^24h in test [2] (LPS 1.0 μg/ml, 24 h, NAC 20 mM 2 h before LPS, NMA 0.1 mM, arginase 100 units/ml with LPS). Also, the Nitrite came to 11.6 ± 1.5 nmol/mg/24 h in test [2] (LPS 1.0 μg/ml, NAC 20 mM 2 h before); 6.2 ± 0.8 nmol/mg Protein^24h in test [2] (NAC 20 mM alone, no LPS, 24 h); 29.6 ± 4.2 nmol/mg/24 h in test [2] (TNF-α 20 ng/ml + IFN-γ 50 U/ml, NAC 20 mM 2 h before); 22.8 ± 2.7 nmol/mg/24 h in test [2] (TNF-α 20 ng/ml + IL-1β 25 ng/ml, NAC 20 mM 2 h before); 10.1 ± 1.6 nmol/mg/24 h in test [2] (TNF-α 100 ng/ml, NAC 20 mM 2 h before); 6.2 ± 0.8 nmol/mg/24 h in test [2] (no stimulus (Control), NAC 20 mM). The “rate of nitrite accumulation” value in test [2] (LPS 1.0 μg/ml, NAC 20 mM, onset of NO release until 24 h, 5.2 in the absence of NAC) was determined as 0.5 nmol/mg/h. Moreover, the inhibition at 20000 µM in test [2] (7 h, NAC 20 mM added 7 h after the addition of LPS, read-out: inhibition of nitrite production) amounted to 20%; in test [2] (IFN-γ 200 U/ml, NAC 20 mM 2 h before, read-out: Inhibition (%) of nitrite) it was 89%; in test [2] (IL-1β 200 ng/ml, NAC 20 mM 2 h before, read-out: Inhibition (%) of nitrite), 57%; in test [2] (LPS 0.2 μg/ml + IFN-γ 50 U/ml, NAC 20 mM 2 h before, read-out: Inhibition (%) of nitrite), 84%; in test [2] (LPS 0.2 μg/ml + IL-1β 25 ng/ml, NAC 20 mM 2 h before, read-out: Inhibition (%) of nitrite), 81%; in test [2] (LPS 0.2 μg/ml + TNF-α 20 ng/ml, NAC 20 mM 2 h before, read-out: Inhibition (%) of nitrite), 92%. Besides, the inhibition at 20000 µM in test [2] (LPS 1.0 μg/ml, NAC 20 mM 2 h before, read-out: Inhibition (%) of nitrite) is 91%; in test [2] (NAC 20 mM, 2 h before LPS, read-out: inhibition of LPS-mediated nitrite production) it was over 90%; in test [2] (TNF-α 20 ng/ml + IFN-γ 50 U/ml, NAC 20 mM 2 h before, read-out: Inhibition (%) of nitrite), 79%; in test [2] (TNF-α 20 ng/ml + IL-1β 25 ng/ml, NAC 20 mM 2 h before, read-out: Inhibition (%) of nitrite), 83%; in test [2] (TNF-α 100 ng/ml, NAC 20 mM 2 h before, read-out: Inhibition (%) of nitrite), 64%; in test [2] (no stimulus (Control), NAC 20 mM, read-out: Inhibition (%) of nitrite) it was 37%. Moreover, the inhibition at 20000 µM in test [2] (of LPS (1.0 μg/ml)-induced nitrite, NAC 20 mM 2 h before, NMA 0.1 mM, arginase 100 units/ml with LPS, read-out: Inhibition (%)) stood at 91%. The “expression of TNF-α in EAE brain” value in the test with TNF-α (daily i.p. treatment from day 1) is “blocked the induction of TNF-α”.

The values are drawn from patent US8507219B2, “Method of treating inflammation with statins” (MUSC Foundation for Research Development, priority 1997, dated 2013).
